Reference: ChEMBL document CHEMBL1137935 (Bioorg Med Chem Lett, 2004)
Active and inactive are the calls of the source. The calls are words filed in the database; no cut-off is given here.

What was measured:
[1] = target: T1, Adenosine receptor A1 (Cavia porcellus) (UniProt P47745); test: Binding affinity against adenosine A1 receptor using [3H]CPX in guinea pig DDT membrane; 1666+/-556
T1 sequence (whole entry): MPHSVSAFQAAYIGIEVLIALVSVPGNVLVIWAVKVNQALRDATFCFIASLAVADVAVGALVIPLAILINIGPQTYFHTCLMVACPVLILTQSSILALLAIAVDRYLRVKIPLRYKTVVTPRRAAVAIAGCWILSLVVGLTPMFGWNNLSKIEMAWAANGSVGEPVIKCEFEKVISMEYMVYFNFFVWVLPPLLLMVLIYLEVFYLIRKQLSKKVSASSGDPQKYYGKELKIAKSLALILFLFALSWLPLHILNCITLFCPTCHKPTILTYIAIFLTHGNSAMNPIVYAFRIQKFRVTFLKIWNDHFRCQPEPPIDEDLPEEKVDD

[2] = target: T1, Adenosine receptor A1 (Cavia porcellus); test: Binding affinity against […] using [35S]GTP-gamma-S, radioligand in guinea pig.; type: functional
[3] = target: T1, Adenosine receptor A1 (Cavia porcellus); test: Binding affinity against adenosine A1 receptor using [3H]CPX in guinea pig DDT membrane; 6250+/-1767
[4] = target: T1, Adenosine receptor A1 (Cavia porcellus); test: Binding affinity against adenosine A1 receptor using [3H]CCPA in guinea pig DDT membrane; 2400+/-16
[5] = system: Adenosine receptor A1 (Cavia porcellus); test: Binding affinity against […] using [35S]GTP-gamma-S, in guinea pig; not active
[6] = target: T1, Adenosine receptor A1 (Cavia porcellus)
[7] = target: T1, Adenosine receptor A1 (Cavia porcellus); test: Binding affinity against adenosine A1 receptor using [3H]CCPA in guinea pig DDT membrane; type: cell membranes
[8] = target: T1, Adenosine receptor A1 (Cavia porcellus); remark: listed apart in the source
[9] = target: T1, Adenosine receptor A1 (Cavia porcellus); test: Binding affinity against adenosine A1 receptor using [3H]CPX in guinea pig DDT membrane; 503+/-262
[10] = target: T1, Adenosine receptor A1 (Cavia porcellus); test: Binding affinity against adenosine A1 receptor using [3H]CPX in guinea pig DDT membrane; 158+/-21
[11] = target: T1, Adenosine receptor A1 (Cavia porcellus); test: Binding affinity against adenosine A1 receptor using [3H]CCPA in guinea pig DDT membrane; 21+/-0
[12] = target: T1, Adenosine receptor A1 (Cavia porcellus); test: Binding affinity against adenosine A1 receptor using [3H]CPX in guinea pig DDT membrane; 913+/-517
[13] = target: T1, Adenosine receptor A1 (Cavia porcellus); test: Binding affinity against adenosine A1 receptor using [3H]CPX in guinea pig DDT membrane; 5497+/-180
[14] = target: T1, Adenosine receptor A1 (Cavia porcellus); test: Binding affinity against adenosine A1 receptor using [3H]CCPA in guinea pig DDT membrane; 971+/-139
[15] = target: T1, Adenosine receptor A1 (Cavia porcellus); test: Binding affinity against adenosine A1 receptor using [3H]CPX in guinea pig DDT membrane; type: cell membranes
[16] = target: T1, Adenosine receptor A1 (Cavia porcellus); test: Binding affinity against adenosine A1 receptor using [3H]CPX in guinea pig DDT membrane; 338+/-98
[17] = target: T1, Adenosine receptor A1 (Cavia porcellus); test: Binding affinity against adenosine A1 receptor using [3H]CCPA in guinea pig DDT membrane; 96+/-11
[18] = target: T1, Adenosine receptor A1 (Cavia porcellus); test: Binding affinity against adenosine A1 receptor using [3H]CPX in guinea pig DDT membrane; 354+/-113
[19] = target: T1, Adenosine receptor A1 (Cavia porcellus); remark: listed apart in the source
[20] = target: T1, Adenosine receptor A1 (Cavia porcellus); remark: listed apart in the source
[21] = target: T1, Adenosine receptor A1 (Cavia porcellus); test: Binding affinity against adenosine A1 receptor using [3H]CPX in guinea pig DDT membrane; 400+/-38
[22] = target: T1, Adenosine receptor A1 (Cavia porcellus); remark: listed apart in the source
[23] = target: T1, Adenosine receptor A1 (Cavia porcellus); test: Binding affinity against adenosine A1 receptor using [3H]CPX in guinea pig DDT membrane; 1571+/-245
[24] = target: T1, Adenosine receptor A1 (Cavia porcellus); test: Binding affinity against adenosine A1 receptor using [3H]-CCPA in guinea pig DDT membrane; 180+/-23
[25] = target: T1, Adenosine receptor A1 (Cavia porcellus); test: Binding affinity against adenosine A1 receptor using [3H]CPX in guinea pig DDT membrane; 5855+/-1208
[26] = target: T1, Adenosine receptor A1 (Cavia porcellus); test: Binding affinity against adenosine A1 receptor using [3H]CCPA in guinea pig DDT membrane; 243+/-107
[27] = target: T1, Adenosine receptor A1 (Cavia porcellus); test: Binding affinity against adenosine A1 receptor using [3H]-CPX in guinea pig DDT membrane; 4191+/-922
[28] = target: T1, Adenosine receptor A1 (Cavia porcellus); test: Binding affinity against adenosine A1 receptor using [3H]CPX in guinea pig DDT membrane; 1143+/-426
[29] = target: T1, Adenosine receptor A1 (Cavia porcellus); test: Binding affinity against adenosine A1 receptor using [3H]CCPA in guinea pig DDT membrane; 160+/-41
[30] = target: T1, Adenosine receptor A1 (Cavia porcellus); test: Binding affinity against adenosine A1 receptor using [3H]CPX in guinea pig DDT membrane; 343+/-137
[31] = target: T1, Adenosine receptor A1 (Cavia porcellus); test: Binding affinity against adenosine A1 receptor using [3H]CCPA in guinea pig DDT membrane; 7.5+/-1.9
[32] = target: T1, Adenosine receptor A1 (Cavia porcellus); remark: listed apart in the source
[33] = target: T1, Adenosine receptor A1 (Cavia porcellus); remark: listed apart in the source
[34] = target: T1, Adenosine receptor A1 (Cavia porcellus); test: Binding affinity against adenosine A1 receptor using [3H]CPX in guinea pig DDT membrane; 614+/-78
[35] = target: T1, Adenosine receptor A1 (Cavia porcellus); test: Binding affinity against adenosine A1 receptor using [3H]CCPA in guinea pig DDT membrane; 102+/-45
[36] = target: T1, Adenosine receptor A1 (Cavia porcellus); test: Binding affinity against adenosine A1 receptor using [3H]CPX in guinea pig DDT membrane; 166+/-75
[37] = target: T1, Adenosine receptor A1 (Cavia porcellus); test: Binding affinity against adenosine A1 receptor using [3H]CCPA in guinea pig DDT membrane; 0.93+/-0.92
[38] = target: T1, Adenosine receptor A1 (Cavia porcellus); remark: listed apart in the source
[39] = target: T1, Adenosine receptor A1 (Cavia porcellus); test: Binding affinity against adenosine A1 receptor using [3H]CPX in guinea pig DDT membrane; 473+/-329
[40] = target: T1, Adenosine receptor A1 (Cavia porcellus); test: Binding affinity against adenosine A1 receptor using [3H]CCPA in guinea pig DDT membrane; 2.73+/-0.49
[41] = target: T1, Adenosine receptor A1 (Cavia porcellus); test: Binding affinity against adenosine A1 receptor using [3H]CPX in guinea pig DDT membrane; 1945+/-1316

SMILES: COc1ccc2nc(SC[C@H]3OC(n4cnc5c(NC6CCCC6)ncnc54)[C@H](O)[C@@H]3O)sc2c1 (some centres undefined)
- Ki low [1]: 1670 nM
- efficacy relative to CPA [2]: 105%

SMILES: OC1[C@@H](O)C(n2cnc3c(NC4CCOC4)ncnc32)O[C@@H]1CSc1ccccc1C(F)(F)F (single isomer, unassigned)
- Ki low [3]: 6250 nM
- Ki high [4]: 2400 nM
- CPA [5]: inactive

SMILES: OC1[C@@H](O)C(n2cnc3c(NC4CCOC4)ncnc32)O[C@@H]1CSc1ccccn1 (single isomer, unassigned)
- efficacy relative to CPA [2]: 110%
- Ki low [6]: 894 nM

SMILES: OC[C@H]1O[C@@H](n2cnc3c(NC4CCCC4)ncnc32)[C@H](O)[C@@H]1O
- Ki high [7]: 0.8 nM
- efficacy relative to CPA [2]: 100%
- Ki low [8]: 19.5 nM

SMILES: Cc1ccccc1OC[C@H]1OC(n2cnc3c(NC4CCOC4)ncnc32)[C@H](O)C1O (single isomer, unassigned)
- Ki low [9]: 503 nM
- efficacy relative to CPA [2]: 61%

SMILES: OC1[C@@H](O)C(n2cnc3c(NC4CCOC4)ncnc32)O[C@@H]1CSc1nccs1 (single isomer, unassigned)
- Ki low [10]: 158 nM
- Ki high [11]: 21 nM
- efficacy relative to CPA [2]: 106%

SMILES: OC1[C@@H](O)C(n2cnc3c(NC4CCOC4)ncnc32)O[C@@H]1CSc1ncccn1 (single isomer, unassigned)
- Ki low [12]: 913 nM
- efficacy relative to CPA [2]: 89%

SMILES: OC1[C@@H](O)[C@H](n2cnc3c(NC4CCOC4)ncnc32)O[C@@H]1CSc1ccc(F)cc1F (single isomer, unassigned; 19)
- Ki low [13]: 5500 nM
- Ki high [14]: 971 nM
- efficacy relative to CPA [2]: 86%

SMILES: Cn1ccnc1SC[C@H]1OC(n2cnc3c(NC4CCCC4)ncnc32)[C@H](O)[C@@H]1O (some centres undefined)
- efficacy relative to CPA [2]: 112%
- Ki low [15]: 1340 nM

SMILES: OC1[C@@H](O)C(n2cnc3c(NC4CCOC4)ncnc32)O[C@@H]1CSc1ccccc1Cl (single isomer, unassigned)
- Ki low [16]: 338 nM
- Ki high [17]: 96 nM
- efficacy relative to CPA [2]: 74%

SMILES: COc1ccc2sc(SC[C@H]3OC(n4cnc5c(NC6CCCC6)ncnc54)[C@H](O)[C@@H]3O)nc2c1 (some centres undefined)
- Ki low [18]: 354 nM
- Ki high [7]: 222 nM
- efficacy relative to CPA [2]: 94%

SMILES: OC[C@H]1O[C@@H](n2cnc3c(N[C@@H]4CCOC4)ncnc32)[C@H](O)C1O (single isomer, unassigned)
- Ki low [19]: 543 nM
- Ki high [20]: 3.25 nM

SMILES: OC1[C@@H](O)C(n2cnc3c(NC4CCOC4)ncnc32)O[C@@H]1CSc1nc2ccccc2s1 (single isomer, unassigned)
- Ki low [21]: 400 nM
- efficacy relative to CPA [2]: 100%

SMILES: O[C@@H]1[C@@H](CSc2nc3ccccc3s2)OC(n2cnc3c(NC4CCCC4)ncnc32)[C@@H]1O (some centres undefined)
- efficacy relative to CPA [2]: 95%
- Ki low [22]: 1770 nM

SMILES: OC1[C@@H](O)C(n2cnc3c(NC4CCOC4)ncnc32)O[C@@H]1CSc1cccc(F)c1 (single isomer, unassigned)
- Ki low [23]: 1570 nM
- Ki high [24]: 180 nM
- efficacy relative to CPA [2]: 84%

SMILES: Cc1cccc(C)c1SC[C@H]1OC(n2cnc3c(NC4CCOC4)ncnc32)[C@H](O)C1O (single isomer, unassigned)
- Ki low [25]: 5860 nM
- Ki high [26]: 243 nM
- efficacy relative to CPA [2]: 12%

SMILES: Cn1ccnc1SC[C@H]1OC(n2cnc3c(NC4CCOC4)ncnc32)[C@H](O)C1O (single isomer, unassigned)
- Ki low [27]: 4190 nM
- efficacy relative to CPA [2]: 84%

SMILES: Cc1ccccc1SC[C@H]1OC(n2cnc3c(NC4CCOC4)ncnc32)[C@H](O)C1O (single isomer, unassigned)
- Ki low [28]: 1140 nM
- Ki high [29]: 160 nM
- efficacy relative to CPA [2]: 81%

SMILES: OC1[C@@H](O)C(n2cnc3c(NC4CCOC4)ncnc32)O[C@@H]1COc1ccc(F)cc1 (single isomer, unassigned)
- Ki low [30]: 343 nM
- efficacy relative to CPA [2]: 71%

SMILES: OC1[C@@H](O)[C@H](n2cnc3c(NC4CCOC4)ncnc32)O[C@@H]1CSc1ccc(F)cc1F (single isomer, unassigned; 26)
- efficacy relative to CPA [2]: 88%
- Ki low [15]: 494 nM

SMILES: OC1[C@@H](O)C(n2cnc3c(NC4CCOC4)ncnc32)O[C@@H]1COCc1ccccc1 (single isomer, unassigned)
- Ki high [31]: 7.5 nM
- efficacy relative to CPA [2]: 98%
- Ki low [15]: 165 nM

SMILES: CNC(=O)OC[C@H]1OC(n2cnc3c(NC4CCOC4)ncnc32)[C@H](O)C1O (single isomer, unassigned)
- Ki low [32]: 3610 nM
- Ki high [33]: 167 nM

SMILES: OC1[C@@H](O)C(n2cnc3c(NC4CCOC4)ncnc32)O[C@@H]1CSc1c(Cl)cccc1Cl (single isomer, unassigned)
- Ki low [34]: 614 nM
- Ki high [35]: 102 nM
- efficacy relative to CPA [2]: 89%

SMILES: O[C@@H]1[C@@H](COc2ccccc2F)OC(n2cnc3c(NC4CCCC4)ncnc32)[C@@H]1O (some centres undefined)
- Ki low [15]: 4390 nM
- CPA [5]: inactive

SMILES: O[C@@H]1[C@@H](CSc2nccs2)OC(n2cnc3c(NC4CCCC4)ncnc32)[C@@H]1O (some centres undefined)
- Ki low [36]: 166 nM
- Ki high [37]: 0.93 nM
- efficacy relative to CPA [2]: 105%

SMILES: O[C@@H]1[C@@H](CSc2ccccc2F)OC(n2cnc3c(NC4CCCC4)ncnc32)[C@@H]1O (some centres undefined)
- Ki high [7]: 33 nM
- efficacy relative to CPA [2]: 90%
- Ki low [38]: 287 nM

SMILES: OC1[C@@H](O)C(n2cnc3c(NC4CCOC4)ncnc32)O[C@@H]1COc1ccccc1Cl (single isomer, unassigned)
- Ki low [39]: 473 nM
- efficacy relative to CPA [2]: 62%

SMILES: Cc1cc(COC[C@H]2OC(n3cnc4c(NC5CCOC5)ncnc43)[C@H](O)C2O)no1 (single isomer, unassigned)
- Ki high [40]: 2.73 nM
- efficacy relative to CPA [2]: 84%
- Ki low [15]: 192 nM

SMILES: OC1[C@@H](O)C(n2cnc3c(NC4CCOC4)ncnc32)O[C@@H]1CSc1nc2ccc(Cl)cc2o1 (single isomer, unassigned)
- Ki low [41]: 1940 nM
- efficacy relative to CPA [2]: 99%

SMILES: Cc1csc(SC[C@H]2OC(n3cnc4c(NC5CCOC5)ncnc43)[C@H](O)C2O)n1 (single isomer, unassigned)
- efficacy relative to CPA [2]: 86%
- Ki low [15]: > 5000 nM
